Test [1] can be described thus: HEp-2 cell cytotoxicity, dose response, cytotoxicity control for RSV inhibitor project, HTS (AID 2410). It is filed as functional. To be noted: human respiratory syncytial virus.
The target in test [2] is T1, RNA-binding protein pos-1 (Caenorhabditis elegans, UniProt G5EF15).
T1 sequence (G5EF15 whole entry): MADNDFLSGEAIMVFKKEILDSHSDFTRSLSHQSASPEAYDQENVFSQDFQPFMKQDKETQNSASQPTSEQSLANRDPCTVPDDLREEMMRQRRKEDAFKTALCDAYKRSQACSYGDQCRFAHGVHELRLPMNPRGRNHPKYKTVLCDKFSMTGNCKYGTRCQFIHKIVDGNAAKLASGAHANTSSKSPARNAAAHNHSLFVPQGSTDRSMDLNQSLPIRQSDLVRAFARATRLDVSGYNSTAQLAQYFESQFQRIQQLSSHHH
Kind of test: inhibitors of POS-1/mex-3 RNA binding, dose response, biochemical, fluorescence polarization (AID 1964).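 Note: purified POS-1 fused to maltose binding protein made in E. coli; potency of compounds blocking POS-1 binding to fluorescent RNA.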

In test [3] the target is T2, Zinc finger protein mex-5 (Caenorhabditis elegans, UniProt Q9XUB2).
T2 sequence (Q9XUB2 whole entry): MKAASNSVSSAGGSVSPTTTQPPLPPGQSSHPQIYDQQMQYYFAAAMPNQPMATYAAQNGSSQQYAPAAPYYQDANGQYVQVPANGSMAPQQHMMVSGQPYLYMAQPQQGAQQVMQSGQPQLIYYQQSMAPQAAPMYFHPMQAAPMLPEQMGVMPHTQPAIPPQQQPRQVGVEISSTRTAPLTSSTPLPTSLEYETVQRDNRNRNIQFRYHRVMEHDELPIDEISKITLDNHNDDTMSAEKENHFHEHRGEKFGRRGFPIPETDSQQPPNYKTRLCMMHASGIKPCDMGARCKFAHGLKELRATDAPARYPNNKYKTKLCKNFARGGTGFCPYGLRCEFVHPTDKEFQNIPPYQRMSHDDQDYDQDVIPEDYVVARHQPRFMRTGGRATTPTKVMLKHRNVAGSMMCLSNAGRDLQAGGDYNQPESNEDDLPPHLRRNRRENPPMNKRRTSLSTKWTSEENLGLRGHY
Kind of test: MEX-5/TCR-2 RNA interaction inhibitors, dose response, biochemical, C. elegans, fluorescence polarization (AID 1960). A general note: In fluorescence polarisation assays a small probe gives low polarisation when free and higher when bound to something large.

In test [4] the target is T3, Heat shock factor protein 1 (Mus musculus, UniProt P38532).
T3 sequence (P38532 whole entry): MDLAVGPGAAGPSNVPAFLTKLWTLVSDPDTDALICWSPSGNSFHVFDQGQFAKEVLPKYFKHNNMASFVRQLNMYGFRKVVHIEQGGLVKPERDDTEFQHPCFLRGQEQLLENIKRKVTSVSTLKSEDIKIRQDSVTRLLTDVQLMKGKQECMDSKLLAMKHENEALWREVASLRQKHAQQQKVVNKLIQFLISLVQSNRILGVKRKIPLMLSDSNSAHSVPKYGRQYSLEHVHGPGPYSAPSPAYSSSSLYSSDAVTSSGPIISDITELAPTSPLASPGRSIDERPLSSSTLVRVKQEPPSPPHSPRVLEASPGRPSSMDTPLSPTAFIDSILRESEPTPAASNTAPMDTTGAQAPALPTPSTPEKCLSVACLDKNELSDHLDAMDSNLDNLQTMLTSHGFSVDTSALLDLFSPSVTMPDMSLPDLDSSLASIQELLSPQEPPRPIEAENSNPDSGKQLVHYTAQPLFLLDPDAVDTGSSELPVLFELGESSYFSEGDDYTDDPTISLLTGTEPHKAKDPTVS
Description: inhibition of MG132-induced HSE-luciferase signal, confirmation, cell-based, NIH3T3, luminescence, dose retest (AID 2382).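 Note: NIH3T3 fibroblasts with HSF1-driven luciferase reporter stressed by proteasome inhibitor MG132; luminescence from HSF1-driven luciferase expression after 8 hours of MG132 stress.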 It is filed as functional.

Test [5] deals with T4, Corticotropin-releasing factor receptor 2/Corticotropin-releasing factor-binding protein (Homo sapiens, UniProt P24387+Q13324).
T4 sequence (Q13324 whole entry): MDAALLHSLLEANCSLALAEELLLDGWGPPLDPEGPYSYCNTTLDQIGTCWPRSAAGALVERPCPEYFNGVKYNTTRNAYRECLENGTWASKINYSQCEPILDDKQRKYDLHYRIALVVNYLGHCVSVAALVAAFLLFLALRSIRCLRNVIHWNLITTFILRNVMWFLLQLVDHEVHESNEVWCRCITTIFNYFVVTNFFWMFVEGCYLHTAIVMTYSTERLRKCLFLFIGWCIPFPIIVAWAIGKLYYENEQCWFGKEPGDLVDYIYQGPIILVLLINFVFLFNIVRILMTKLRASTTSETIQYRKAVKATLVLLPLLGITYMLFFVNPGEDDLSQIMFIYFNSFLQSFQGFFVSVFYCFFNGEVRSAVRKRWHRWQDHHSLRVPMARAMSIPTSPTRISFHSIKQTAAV
T4 sequence (P24387 whole entry): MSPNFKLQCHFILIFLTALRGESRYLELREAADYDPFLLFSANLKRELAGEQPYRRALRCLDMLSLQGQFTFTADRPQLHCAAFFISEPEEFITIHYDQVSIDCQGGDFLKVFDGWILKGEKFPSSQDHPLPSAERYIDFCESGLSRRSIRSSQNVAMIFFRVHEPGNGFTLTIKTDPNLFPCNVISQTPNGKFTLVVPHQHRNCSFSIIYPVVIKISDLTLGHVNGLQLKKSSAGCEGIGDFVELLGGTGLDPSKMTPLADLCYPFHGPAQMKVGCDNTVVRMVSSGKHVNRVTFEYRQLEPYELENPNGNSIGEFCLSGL
Kind of test: activators of CRF receptor 2 with binding protein – uHTS hits, confirmation (AID 602473). It is filed as functional. To be noted: read-out: EC50_Mean.

The target in test [6] is T4, Corticotropin-releasing factor receptor 2/Corticotropin-releasing factor-binding protein. Description: Dose Response confirmation of uHTS hits for small molecule antagonists of the CRF-binding protein and CRF-R2 receptor complex. It is filed as functional. Conditions: read-out: IC50_Mean.

SMILES strings stand for the structures. Active and inactive are the calls of the source. Cut-off read from the data, not from the text of the source, for most assays here: actives have a measured EC50 and inactives only a lower limit.

Here are results for 27 compounds from ChEMBL document CHEMBL1201862, “PubChem BioAssay data set” (2004).

The term CC50 denotes the concentration giving 50% cytotoxicity.

In the case of `O=C1N=C(Nc2cccc(O)c2)S/C1=C\c1cccc([N+](=O)[O-])c1`, the 50% cytotoxic concentration (CC50) in test [1] was > 50 µM (active). Turning to `COC(=O)CCCC1=CC2=CC(=O)C(C)(OC(=O)C3CCCC3)C(=O)C2=CO1` (stereo unspecified), the EC50 in test [2] is 23.3 µM (active); in test [3], 57.7 µM (inconclusive). On to `Cc1n[nH]c(-c2ccc(OCc3cnn(-c4ccccc4)c3)c(C)c2O)c1Oc1ccccc1`, for which the cytotoxic concentration (CC50) in test [1] was 14.6 µM (active). Take `CC1=C(C#N)C(=O)N(C)C(=O)/C1=C\NNc1ccc(F)cc1`: the EC50 in test [2] and in test [3] was > 300 µM (not active) throughout. As to `Cc1c(OCC(=O)NCC(O)c2ccccc2)ccc2c3c(c(=O)oc12)CCCC3` (stereo unspecified), the CC50 in test [1] was 48.5 µM (active). Take `CCc1ccc(C2=NNC(=Nc3c(C)n(C)n(-c4ccccc4)c3=O)SC2)cc1`: in test [1], the CC50 is 20.1 µM (active).

For the compound `COc1ccc(CN(CCCN2CCOCC2)C(=O)Nc2cccc(Cl)c2)cc1OC`, in test [4], the EC50 is listed as > 195 µM (not active). Turning to `CCOP(=O)(OCC)C(Nc1cccc([N+](=O)[O-])c1)c1ccccc1` (stereo unspecified), the EC50 in test [5] was > 53 µM (inactive); in test [2] it was > 300 µM (not active); in test [3], > 300 µM (not active). Also, the IC50 in test [6] is > 47.1 µM (inactive). With `CC1=Nc2ccc(C)c3nc(C)cc(c23)N1c1ccc(C)cc1`, the EC50 in test [4] is on record as > 195 µM (not active). Also, in test [1], the half-maximal cytotoxic concentration (CC50) was > 50 µM (active). For `COC(=O)CNc1cccc(C(F)(F)F)c1`, the EC50 in test [2] and in test [3] was > 300 µM (not active) throughout. Take `CC(N1CCOC1=O)S(=O)(=O)c1ccccc1` (stereo unspecified): in test [4], the EC50 is > 195 µM (not active).

With `CCN(CC)S(=O)(=O)c1cccc(NC(=O)CCNC(=O)NC23CC4CC(CC(C4)C2)C3)c1`, in test [4], the EC50 is > 195 µM (not active). On to `N#Cc1ccc(CN2CCN(CC(=O)NCCc3ccc(Cl)cc3Cl)CC2)cc1`, for which, in test [1], the CC50 was 22.9 µM (active). `CCOC(=O)Nc1ccccc1C(=O)Nc1cc(C)cc(C)c1`: the EC50 in test [4] was > 195 µM (not active). Turning to `CC(Oc1ccc(Cl)cc1Cl)C(=O)Nc1cccc(O)c1` (stereo unspecified), the CC50 in test [1] is 27.2 µM (active). With `COc1ccc(N(C)C(=O)CN(C)S(=O)(=O)c2ccc3c(c2)c(=O)n(C)c(=O)n3C)c(OC)c1`, the EC50 in test [4] was 120 µM (active). The same measure, in the same setting: to `CCN(CC(=O)N1CCCC1)S(=O)(=O)c1ccc(F)cc1` belongs > 195 µM (not active). Take `CSc1cccc(NC(=O)N2CCc3ccc(NC(=O)c4ccccn4)cc3C2)c1`: the cytotoxic concentration (CC50) in test [1] is 14.4 µM (active). On to `Cc1c(-c2nc[nH]n2)sc(C#N)c1-c1ccccc1`, for which the 50% cytotoxic concentration (CC50) in test [1] is 24.4 µM (active). In addition, the EC50 in test [5] was > 53 µM (inactive). Also, the IC50 in test [6] is > 47.1 µM (inactive).

With `Cc1[nH]c2ccccc2c1C(C[N+](=O)[O-])c1cccs1` (stereo unspecified), the EC50 in test [4] is reported as > 195 µM (not active). Consider `Cc1ccccc1OCCNC(=O)c1ccc2ccccc2n1`, for which the 50% cytotoxic concentration (CC50) in test [1] was 24.5 µM (active). As for `N#Cc1c(N)n(-c2cccc(C(=O)O)c2)c2nc3ccccc3nc12`, the EC50 in test [5] was 13.7 µM (active); in test [2], > 300 µM (not active); in test [3] it was > 300 µM (not active). Besides, the IC50 in test [6] is > 47.1 µM (inactive). For the compound `CC(=O)c1c(O)cc(O)cc1CC(=O)O`, the EC50 in test [2] was > 300 µM (inconclusive); in test [3] it was 190 µM (inconclusive).

Consider `CC1(C)C(=O)NCCN1C(=O)CSc1nccc(-c2ccc(Br)cc2)n1`, for which, in test [1], the CC50 is 34.1 µM (active). Take `COc1ccc(/C(C)=N/Nc2nc3ccccc3nc2C)cc1OC`: the EC50 in test [2] was 5.07 µM (inconclusive); in test [3] it was 66.5 µM (inconclusive). For `CSc1ccc(/C=N/n2nnnc2N)cc1`, in test [1], the CC50 was 48.5 µM (active).

Turning to `CCCCN1C(=O)C(CC(=O)NCC)S/C1=N/c1ccccc1` (stereo unspecified), the EC50 in test [4] was > 195 µM (not active).
